Patent publication US20200206291A1, “COMPOSITION FOR PREVENTING OR TREATING OBESITY, COMPRISING SUPPLEMENT FOR REDUCING BODY FAT AND B-GLUCAN AS ACTIVE INGREDIENTS” (QUEGEN BIOTECH CO., LTD., priority 2017, published 2020)

Legend:
Assay type in all cases: in vivo, C57BL/6 mice
[1] = Body weight of mice measured every week for 20 weeks, HCA with or without SPG (Example 2, FIG. 5); details: oral, weekly over 20 weeks; compared to Comparative Experimental Group 2-3 (PBS)
Experimental: Six-week-old wild-type C57BL/6 mice, to be subjected to body fat monitoring, were purchased, acclimated for 3 days and then raised. HCA (Sigma-Aldrich), Schizophyllum commune-derived β-glucan (SPG with the structure of β-(1.6)-branched (1,3)-glucan; Quegen Biotech Co., Ltd.) and a phosphate buffer solution (PBS) were orally administered as test drugs in combination or independently once every day. Specifically, 0.2 mL of HCA (concentration=10 mg/mL), and after 30 minutes, 0.2 mL of Schizophyllum commune-derived β-glucan (SPG with the structure of β-(1,6)-branched (1,3)-glucan; concentration=0.4 mg/mL) were orally administered to Experimental Group 2-1. In addition, 0.2 mL of HCA (concentration=10 mg/mL), and after 30 minutes, 0.2 mL of Schizophyllum commune-derived β-glucan (SPG with the structure of β-(1,6)-branched (1,3)-glucan; concentration=2 mg/mL) were orally administered to Experimental Group 2-2. Meanwhile, 0.2 mL of HCA (concentration=10 mg/mL) was orally administered to Comparative Experimental Group 2-1. […]
Specifically, in Experimental Groups 2-1 and 2-2 and Comparative Experimental Groups 2-1 to 2-3, the body weights of the mice were measured every week for 20 weeks after the start of administration of the test drugs, and the result is shown in FIG. 5.

[2] = Body weights and tissue weights of mice sacrificed after 20 weeks (Example 2, FIG. 6); details: compared to Comparative Experimental Group 2-3 (PBS)
Experimental: (§1) Six-week-old wild-type C57BL/6 mice, to be subjected to body fat monitoring, were purchased, acclimated for 3 days and then raised. HCA (Sigma-Aldrich), Schizophyllum commune-derived β-glucan (SPG with the structure of β-(1.6)-branched (1,3)-glucan; Quegen Biotech Co., Ltd.) and a phosphate buffer solution (PBS) were orally administered as test drugs in combination or independently once every day. Specifically, 0.2 mL of HCA (concentration=10 mg/mL), and after 30 minutes, 0.2 mL of Schizophyllum commune-derived β-glucan (SPG with the structure of β-(1,6)-branched (1,3)-glucan; concentration=0.4 mg/mL) were orally administered to Experimental Group 2-1. In addition, 0.2 mL of HCA (concentration=10 mg/mL), and after 30 minutes, 0.2 mL of Schizophyllum commune-derived β-glucan (SPG with the structure of β-(1,6)-branched (1,3)-glucan; concentration=2 mg/mL) were orally administered to Experimental Group 2-2. Meanwhile, 0.2 mL of HCA (concentration=10 mg/mL) was orally administered to Comparative Experimental Group 2-1. In addition, 0.2 mL of Schizophyllum commune-derived β-glucan (SPG with the structure of 3-(1.6)-branched (1,3)-glucan:concentration=2 mg/mL) was orally administered to Comparative Experimental Group 2-2, and 0.2 mL of PBS was orally administered to Comparative Experimental Group 2-3.
In addition, in Experimental Groups 2-1 and 2-2 and Comparative Experimental Groups 2-1 to 2-3, the mice were sacrificed after 20 weeks of administering the test drugs, and then body weights and tissue weights thereof measured, and the result is shown in FIG. 6.

[3] = Summary of the animal tests: supplement for reducing body fat and β-glucan, alone or co-administered; details: administered alone
Experimental: (§2) Six-week-old wild-type C57BL/6 mice, to be subjected to body fat monitoring, were purchased, acclimated for 3 days and then raised. Schizophyllum commune-derived β-glucan (SPG with the structure of β-(1,6)-branched (1,3)-glucan; Quegen Biotech Co., Ltd.) and a phosphate buffer solution (PBS) were orally administered as test drugs in combination or independently once every day. Specifically, 0.2 mL of CLA (concentration=10 mg/mL), and after 30 minutes, 0.2 mL of Schizophyllum commnune-derived β-glucan (SPG with the structure of β-(1,6)-branched (1,3)-glucan; concentration=0.4 mg/mL) were orally administered to Experimental Group 1-1. In addition, 0.2 mL of CLA (concentration=10 mg/mL), and after 30 minutes, 0.2 mL of Schizophyllum commune-derived β-glucan (SPG with the structure of β-(1,6)-branched (1,3)-glucan; concentration=2 mg/mL) were orally administered to Experimental Group 1-2. Meanwhile, 0.2 mL of CLA (concentration=10 mg/mL) was orally administered to Comparative Experimental Group 1-1. In addition, 0.2 mL of Schizophyllum commune-derived β-glucan (SPG with the structure of β-(1,6)-branched (1,3)-glucan; concentration=2 mg/mL) was orally administered to Comparative Experimental Group 1-2, and 0.2 mL of PBS was orally administered to Comparative Experimental Group 1-3.
as §1

[4] = Serum analysis of mice sacrificed after 20 weeks (Example 2, FIG. 7); details: compared to Comparative Experimental Group 2-3 (PBS)
Experimental: as §1, with “2-3. In addition, in Experimental Groups 2-1 and 2-2 and Comparative Experimental Groups 2-1 to 2-3, the mice were sacrificed after 20 weeks of administering the test drugs, and then subjected to serum analysis, and the result is shown in FIG. 7.” for “2-3.”

[5] = Serum analysis of mice sacrificed after 28 weeks (Example 1, FIG. 4); details: compared to Comparative Experimental Group 1-3 (PBS)
Experimental: as §2
In addition, in Experimental Groups 1-1 and 1-2 and Comparative Experimental Groups 1-1 to 1-3, the mice were sacrificed after 28 weeks of administering the test drugs, and then subjected to serum analysis, and the result is shown in FIG. 4.

[6] = Body weight of mice measured every week for 28 weeks, CLA with or without SPG (Example 1, FIG. 2); details: oral, weekly over 28 weeks; compared to Comparative Experimental Group 1-3 (PBS)
Experimental: as §2, with “In addition, 0.2 mL of Schizophyllum commune-derived β-glucan (SPG with the structure of β-(1,6)-branched (1,3)-glucan; concentration=2 mg/mL) was orally administered to Comparative Experimental Group 1-2, and 0.2 mL of PBS was orally administered to Comparative Experimental Group 1-3.” left out
Specifically, in Experimental Groups 1-1 and 1-2 and Comparative Experimental Groups 1-1 to 1-3, the body weights of the mice were measured every week for 28 weeks after the start of administration of the test drugs, and the result is shown in FIG. 2.

[7] = Body weights and tissue weights of mice sacrificed after 28 weeks (Example 1, FIG. 3); details: compared to Comparative Experimental Group 1-3 (PBS)
Experimental: as §2
In addition, in Experimental Groups 1-1 and 1-2 and Comparative Experimental Groups 1-1 to 1-3, the mice were sacrificed after 28 weeks of administering the test drugs, and then body weights and tissue weights thereof measured, and the result is shown in FIG. 3.

| Molecule | body weight as the period of administering the test drugs progressed [1] | body weight at sacrifice [2] | tissue weight of each organ [2] | tissue weight of the liver [2] | side effects (hepatotoxicity, increase in blood cholesterol level) [3] | weight loss effect [3] | free fatty acid content (serum) [4] | liver damage (serum analysis) [4] | total cholesterol content in blood [4] | triglyceride content (serum) [4] | free fatty acid content (serum) [5] | liver damage (serum analysis) [5] | total cholesterol content in blood [5] | triglyceride content (serum) [5] | body weight as the period of administering the test drugs progressed [6] | body weight at sacrifice [7] | tissue weight of each organ [7] | tissue weight of the liver [7] |
| --- | --- | --- | --- | --- | --- | --- | --- | --- | --- | --- | --- | --- | --- | --- | --- | --- | --- | --- |
| O=C(O)CC(O)(C(=O)O)C(O)C(=O)O (stereo not drawn) [Comparative Experimental Group 2-1, hydroxycitric acid] | greatly decreased in body weight | greatly decreased | greatly decreased | rather increased in tissue weight of the liver | side effects caused by hepatotoxicity and an increase in blood cholesterol level are problematic | a weight loss effect caused by reduced body fat is exhibited | decreased by more than half | had liver damage | increased in total cholesterol content in blood | decreased by more than half | – | – | – | – | – | – | – | – |
| conjugated linoleic acid [Comparative Experimental Group 1-1] | – | – | – | – | side effects caused by hepatotoxicity and an increase in blood cholesterol level are problematic | a weight loss effect caused by reduced body fat is exhibited | – | – | – | – | decreased by more than half | had liver damage | increased in total cholesterol content in blood | decreased by more than half | greatly decreased in body weight | greatly decreased | greatly decreased | rather increased in tissue weight of the liver |
| β-(1,6)-branched (1,3)-glucan [Comparative Experimental Group 1-2] | no change in body weight | almost no change | almost no change | – | – | does not exhibit a significant weight loss effect | – | – | – | – | – | – | – | – | no change in body weight | almost no change | almost no change | – |
